Source: patent US9746466B2, “Integrated compound discovery systems and methods” (Wake Forest University, priority 2011, dated 2017)

Target: thrombin (Homo sapiens, UniProt P00734)
Assay: on-chip binding of TAMRA-labeled thrombin to bead-displayed oligonucleotides on Ion Torrent sequencing chips, fluorescence imaging
Conditions: after washing, fluorescence imaging of wells, 20mer GT randomer library doped with thrombin aptamer
From the text: Embodiments of the present invention reduce uncertainty due to amplification-based biases, blind spots and inference-based methods of deconvoluting candidate sequences through direct, on-chip analysis of candidate sequences and their target-binding properties. […] We obtained DNA libraries containing a 20mer GT randomer region flanked by Ion Torrent adaptor sequences (ITD, Coralville, Iowa). Libraries were doped with increasing amounts of the thrombin aptamer (with adaptors). […] The number of full-length reads correlates with the amount of thrombin aptamer doped into GT randomer libraries.

## GGTTGGTGTGGTTGG (DNA, backbone not given here) [thrombin aptamer]
  intensity of the TAMRA signal: highest
  residence time of the TAMRA signal: highest
